Assay results reported in US20250072421A1, “ARYL DIHYDROPYRAN DERIVATIVE OR SALT THEREOF, PEST CONTROL AGENT CONTAINING SAME, AND METHOD FOR USE THEREOF” (ADEKA Corporation, priority 2021, published 2025).

What was measured:
[1] = test system: Plutella xylostella; test: Insecticidal test against Plutella xylostella; conditions: 500 ppm drug solution, Chinese cabbage seedlings with eggs immersed about 30 sec, six days after immersion, 25° C.
[2] = test system: Dirofilaria immitis; test: Influence evaluation test on the growth of Dirofilaria immitis; assay type: cell-based; conditions: 168 h, read-out: development inhibition rate from the L3 stage larva to the L4-stage larva
[3] = test system: Laodelphax striatellus; test: Insecticidal test against Laodelphax striatellus; conditions: 500 ppm drug solution, rice seedlings immersed 30 seconds, three-instar insects, eight days after inoculation
[4] = test system: Frankliniella occidentalis; test: Insecticidal test against Frankliniella occidentalis; conditions: 500 ppm drug solution sprayed on Phaseolus vulgaris leaf pieces with hatched larvae, four days after treatment

| SMILES | rating of assessment (corrected mortality) against Plutella xylostella [1] | further results |
| --- | --- | --- |
| O=C(Nc1ccc(F)cc1)C1=C(O)CC(c2ccc(C(F)(F)F)c(Cl)c2)OC1=O (centres unmarked) [1-1, 6-(3-chloro-4-(trifluoromethyl)phenyl)-N-(4-fluorophenyl)-4-hydroxy-2-oxo-5,6-dihydro-2H-pyran-3-carboxamide] | D or higher | inhibition at 10 µM [2]: ≥ 50% |
| O=C(Nc1ccc(Cl)cc1)C1=C(O)CC(c2ccc(C(F)(F)F)cc2)OC1=O (centres unmarked) [1-5] | D or higher |  |
| O=C(Nc1ccccc1)C1=C(O)CC(c2ccc(C(F)(F)F)cc2)OC1=O (centres unmarked) [1-6] | D or higher |  |
| O=C(Nc1cccs1)C1=C(O)CC(c2ccc(C(F)(F)F)cc2)OC1=O (centres unmarked) [1-7] | D or higher |  |
| O=C(Nc1ccc(Oc2ccccc2)cc1)C1=C(O)CC(c2ccc(C(F)(F)F)cc2)OC1=O (centres unmarked) [1-14] | D or higher |  |
| O=C(Nc1ccc2c(c1)OCO2)C1=C(O)CC(c2ccc(C(F)(F)F)cc2)OC1=O (centres unmarked) [1-15] | D or higher |  |
| O=C(Nc1ccc(F)cc1)C1=C(O)CC(c2ccc(C(F)(F)F)nc2)OC1=O (centres unmarked) [1-21] | D or higher | rating of assessment (corrected mortality) against Laodelphax striatellus [3]: D or higher; rating of assessment (corrected mortality) against Frankliniella occidentalis [4]: D or higher |
| CC1(C)C(O)=C(C(=O)Nc2ccc(F)cc2)C(=O)OC1c1ccc(C(F)(F)F)cc1 (centres unmarked) [1-22] | D or higher |  |
| COc1ccc(NC(=S)C2=C(O)CC(c3ccc(C(F)(F)F)cc3)OC2=O)cc1 (centres unmarked) [1-31] | D or higher |  |
| CC1(C)C(O)=C(C(=S)Nc2ccc(F)cc2)C(=O)OC1c1ccc(C(F)(F)F)cc1 (centres unmarked) [1-67] | D or higher |  |
| O=C1OC(c2ccc(C(F)(F)F)cc2)C2(CCCCC2)C(O)=C1C(=S)Nc1ccc(F)cc1 (centres unmarked) [1-68, N-(4-fluorophenyl)-5-hydroxy-3-oxo-1-(4-(trifluoromethyl)phenyl)-2-oxaspiro[5.5]undec-4-en-4-carbothioamide] |  | inhibition at 10 µM [2]: ≥ 50% |
| CC1(C)C(O)=C(C(=S)Nc2ccc(F)cn2)C(=O)OC1c1ccc(C(F)(F)F)cc1 (centres unmarked) [1-71] |  | rating of assessment (corrected mortality) against Laodelphax striatellus [3]: D or higher |
| Cc1ccc(NC(=O)C2=C(O)CC(c3ccc(C(F)(F)F)cc3)OC2=O)cc1 (centres unmarked) [1-73] | D or higher |  |
| O=C(NC1CC1)C1=C(O)CC(c2ccc(C(F)(F)F)cc2)OC1=O (centres unmarked) [1-74] | D or higher |  |
| O=C(Nc1ccc(F)cc1)C1=C(O)CC(c2ccc(Cl)nc2)OC1=O (centres unmarked) [1-75] | D or higher | rating of assessment (corrected mortality) against Laodelphax striatellus [3]: D or higher; rating of assessment (corrected mortality) against Frankliniella occidentalis [4]: D or higher |
| O=C(Nc1ccc(F)cn1)C1=C(O)CC(c2ccc(C(F)(F)F)nc2)OC1=O (centres unmarked) [1-76] | D or higher | rating of assessment (corrected mortality) against Laodelphax striatellus [3]: D or higher |
| O=C(Nc1ccc(F)cn1)C1=C(O)CC(c2ccc(C(F)(F)F)cc2)OC1=O (centres unmarked) [1-77] | D or higher | rating of assessment (corrected mortality) against Frankliniella occidentalis [4]: D or higher |
| O=C(Nc1ccc(F)cc1)C1=C(O)CC(c2cc(-c3ccccc3)no2)OC1=O (centres unmarked) [1-78] | D or higher |  |
| CSc1ccc(C2CC(O)=C(C(=O)Nc3ccc(F)cc3)C(=O)O2)cc1 (centres unmarked) [1-83] | D or higher |  |
| C[S+]([O-])c1ccc(C2CC(O)=C(C(=O)Nc3ccc(F)cc3)C(=O)O2)cc1 (centres unmarked) [1-84] | D or higher |  |
| CS(=O)(=O)c1ccc(C2CC(O)=C(C(=O)Nc3ccc(F)cc3)C(=O)O2)cc1 (centres unmarked) [1-85] | D or higher |  |
| O=C(Nc1ccc(F)cc1)C1=C(O)CC(c2ccc(OC(F)(F)F)cc2)OC1=O (centres unmarked) [1-86] | D or higher |  |
| N#Cc1ccc(C2CC(O)=C(C(=O)Nc3ccc(F)cc3)C(=O)O2)cc1 (centres unmarked) [1-97] | D or higher |  |
| O=C(Nc1ccc(F)cc1)C1=C(O)CC(c2ccc3c(c2)OCO3)OC1=O (centres unmarked) [1-103] | D or higher |  |
| O=C(Nc1ccc(F)cc1)C1=C(O)CC(c2ccc([N+](=O)[O-])cc2)OC1=O (centres unmarked) [1-107] | D or higher |  |
| COc1ccccc1C1CC(O)=C(C(=O)Nc2ccc(F)cc2)C(=O)O1 (centres unmarked) [1-131] | D or higher |  |
| COc1ccccc1C1CC(O)=C(C(=O)Nc2ccc(SC(F)(F)F)cc2)C(=O)O1 (centres unmarked) [1-132] | D or higher |  |
| O=C(Nc1ccc(F)cc1)C1=C(O)CC(c2ccc(SC(F)(F)F)cc2)OC1=O (centres unmarked) [1-135] | D or higher |  |
